Here are results for one compound from patent US7557092B2, “Purinergic modulation of smell” (University of Utah Research Foundation, priority 2002, dated 2009).

Structures are written as SMILES. Several values for one entry are separate records, joined by “and”; a condition that tells them apart may be missing. Identical values can stand only once.

Assay [1] concerns odor responses of mouse ORNs in olfactory epithelium slices. Kind of assay: co-application of odor and purinergic receptor agonist, calcium transients in olfactory epithelium slices. Type of assay: cell-based.
Another assay relates to cultured mouse ORNs. Kind of assay: confocal calcium imaging of fluo-4 AM loaded cultured ORNs. The class given is cell-based.
For assay [2], the system named is P2X and P2Y purinergic receptors. The conditions noted are these: cited from earlier work.
The subject of assay [3] is cultured mouse olfactory receptor neurons (ORNs). Kind of assay: nystatin perforated-patch voltage-clamp of cultured ORNs. The class given is cell-based. The conditions noted are these: 10 μM ATP. How it is done: The physiological activation of purinergic receptors in cultured mouse ORNs (Vargas and Lucero, 1999a) were examined using both electrophysiology (Danaceau and Lucero, 1998)(FIG. 2A), and calcium imaging (FIG. 2B-E). ATP (10 μM) evoked inward currents in 39% (27/69 ORNs) of the perforated-patched mouse ORNs during brief (1-10 s) applications (FIG. 2A). […] Rapid activation of inward current that closely followed the ATP stimulus profile with little or no desensitization was also observed, indicating involvement of non-desensitizing ionotropic P2X receptors [P2X4 and/or P2X7] (Ralevic and Burnstock, 1998)(FIG. 2A, cell 2) (14/27 cells; latency=81±15 ms, Imax=−235±74 pA). These electrophysiological results support the immunohistochemical evidence of expression of both purinergic receptor subtypes in ORNs.
(§1) To prepare olfactory epithelium slices, neonatal mice (postnatal day 0-6) were quickly decapitated, and the skin and lower jaw were removed. Tissue was mounted in ice cold Ringers onto a vibratome-cutting block and 300 μm slices were made. Primary cultures of mouse ORNs were made using the same protocol and culture conditions as described for rat olfactory receptor neurons (Vargas and Lucero, 1999a). Briefly, tissue was placed in divalent cation-free Ringers containing 10 mg/ml bovine serum albumin, 1 mg/ml deoxyribonuclease II and 44 U/ml dispase, incubated at 37° C. for 45 min. The tissue was washed, triturated, and filtered through a […] mesh and […] cells were plated onto concanavalin A-coated coverslips and allowed to settle for 20 min. An additional 1.5 ml of culture medium was added (DMEM supplemented with […] ascorbic acid, 1X insulin-transferrin-seleniumX (GIBCO BRL), 2 mM glutamine, 100 U/ml penicillin G and […] streptomycin).
The nystatin perforated-patch technique (Horn and Marty, 1988) was used to examine cells under voltage-clamp. Electrodes (2-5 MΩ) were filled with TMA-oxide internal solution (in mM: 62.5 TMA oxide, 62.5 KH2PO4, 15 KCl, 5 MgCl2, 11 EGTA, 10 HEPES, 1 glutathione, 5 TEA, 0.03% pluronic acid F-127, 0.3% DMSO, […] nystatin, pH 7.2, 330 mOsm).

Assay [4] relates to sustentacular cells in mouse olfactory epithelium slices. Kind of assay: confocal calcium imaging of fluo-4 AM loaded olfactory epithelium slices, sustentacular cells. The class given is cell-based. Particulars: 10 μM agonist superfused onto slice.
Excerpt: To study the effects of ATP on odor responses, acutely prepared slices of mouse olfactory epithelium were used. Confocal imaging of fluo-4 AM-loaded olfactory epithelium slices allows simultaneous recording from identified structures within the olfactory epithelium, i.e., both ORNs and sustentacular cells. […] The difference in robustness can be due to poor access to the ATP stimulus: odorant receptors are on the cilia of the ORNs, which extend beyond the outer edge of the olfactory epithelium, whereas purinergic receptors are located deeper within the olfactory epithelium. […] The latency of activation for the ATP-evoked calcium transient was shorter in the ORN (FIG. 3B2, solid up arrowhead) than in sustentacular cells (FIG. 3B3, open down arrowhead). Collectively, this was consistent with ORNs expressing the faster P2X receptors, and the sustentacular cells expressing the slower G-protein coupled P2Y receptors.
as §1
[Ca^2+]i was determined using confocal imaging of fluo-4 AM (18 μM; Molecular Probes) loaded cells and slices. Cells or slices were placed in a laminar flow chamber (Warner Instruments) and perfused continuously with Ringers solution at a flow rate of 1.5-2.0 ml/min. Ringers contained (mM): 140 NaCl, 5 KCl, 1 MgCl2, 2 CaCl2, 10 HEPES, 10 glucose, […] and 400 nM tetrodotoxin. Test solutions were applied using bath exchange and a small volume loop injector (200 μl). A Zeiss LSM 510 confocal laser scanning system was used for data collection and analysis. Time series experiments were performed collecting 1400×700 pixel images at 0.2-0.4 Hz. The fluorometric signals obtained are expressed as relative fluorescence change, ΔF/F═(F−F0)/F0, where F0 is the basal fluorescence level. Increases in F greater than 10% above baseline noise were considered responses.

Where [5] appears, read: cells with long latent period (P2Y-like), 13/27 cells.
[6] abbreviates: rapidly activating cells (P2X-like), 14/27 cells.

One may read the EC50 as the concentration at which the effect is half-maximal. On to `Nc1ncnc2c1ncn2[C@@H]1O[C@H](COP(=O)(O)OP(=O)(O)OP(=O)(O)O)[C@@H](O)[C@H]1O` [ATP, Adenosine 5′-triphosphate], for which the “odor-responsive cells with a significant decrease in the summed [Ca2+]i increase” value in assay [1] (co-application of 10 μM ATP and odor (10 μM n-amyl acetate+10 μM R-carvone)) is reported as 62%. Also, the “mean suppression of the summed [Ca2+]i increase” value in assay [1] (co-application of 10 μM ATP and odor, n=26) is 57±5% and 57%±5%. Also, in assay [1] (co-application of 10 μM ATP and odor, the two ORNs with >20% increase), the “mean enhancement of evoked [Ca2+]i increase” value amounted to 157±34%. Further, the “ATP-induced rise in [Ca2+]i in the absence of external Ca2+, larger than in the presence of Ca2+” value with cultured mouse ORNs (10 μM ATP, 0 Ca2+ + EGTA) is 31±11%. In addition, in the assay on cultured mouse ORNs (10 μM ATP, n=76), the “ΔF/F increase in [Ca2+]i, average” value was 151±12% and the “ΔF/F increase in [Ca2+]i, range” value is listed as 13-398%. Further, in the assay on cultured mouse ORNs (Mus musculus, averaged dose-response, maximum % ΔF/F relative to 10 μM ATP, n=58, read-out: EC50 of ATP-induced [Ca2+]i increases), the EC50 was 1600 nM. In the assay with cultured mouse ORNs (extracellularly applied ATP), the “ORNs with rapid transient increase in [Ca2+]i” value is given as 76/84. For the same compound, the “concentrations that activate P2X and P2Y purinergic receptors” value in assay [2] was 0.1 to 10 µM. Besides, the “ORNs in which ATP evoked inward currents” value in assay [3] (brief (1-10 s) applications, perforated-patched mouse ORNs, 27/69 ORNs) is 39%. In assay [3] (setting [5]), the Imax was −29±8 pA and the “latency of inward current” value was 1140 ± 236 ms. Besides, in assay [3] (setting [6]), the Imax was −235±74 pA and the “latency of inward current” value is 81 ± 15 ms. Moreover, the “agonist-evoked calcium transients in sustentacular cells” value in assay [4] is reported as “evoked calcium transients”.
